From patent US20190031717A1, “MULTI-FUNCTIONAL FUSION POLYPEPTIDE, PREPARATION METHOD THEREOF, AND APPLICATION OF SAME” (NANJING ANJI BIOLOGICAL TECHNOLOGY CO., LTD, priority 2016, published 2019)

How the values were obtained:
Pancreatic cancer = assay: MTT assay, tumor cells; format: cell-based, human; parameters: concentration or dose not given beside the values; settings: 48 hours, mean ± SD
Protocol: (§1) A variety of human tumor cells were cultured in a 37° C., 5% (volume fraction) CO2 incubator to a density of 90% or more, collected by trypsinization, resuspended in a culture medium and counted under a microscope, and the cells were harvested. The concentration was adjusted to 2.0×10^4 cells/mL, the cell suspension was inoculated into a 96-well plate at 100 μL per well and cultured overnight at 37° C. in a 5% (volume fraction) CO2 incubator. After the cells were completely adhered, the polypeptides of the present invention were added as drug-administered groups, and a culture solution containing no drug was used as a blank control group, and the culture solution was diluted to each predetermined concentration. Each dilution was separately added to a 96-well plate at 100 μL per well and incubated for 48 hours at 37° C. in a 5% (volume fraction) CO2 incubator. 20 μL of 5 mg/mL MTT was added to each well of a 96-well plate and incubation was continued for 4 h. The medium was aspirated and dissolved in 100 μL of DMSO per well. The absorbance was measured with a microplate reader at a detection wavelength of 570 nm and a reference wavelength of 630 nm, and the growth inhibition rate was calculated as follows: tumor growth inhibition rate (%)=(1−absorbance value of the administered group/unadministered group absorbance value)×100%, and the experiment was repeated 3 times independently. The results obtained from the test were expressed as mean±standard deviation, and the tumor growth inhibition rate of the unadministered group was 0. The results in Table 7 indicate that the polypeptides of the present invention have a significant inhibitory effect on the growth of various tumors (FIG. 6).

Liver cancer = assay: MTT assay, tumor cells; format: cell-based, human; parameters: concentration or dose not given beside the values; settings: 48 hours, mean ± SD
Protocol: as §1

Hemangioma = assay: MTT assay, tumor cells; format: cell-based, human; parameters: concentration or dose not given beside the values; settings: 48 hours, mean ± SD
Protocol: as §1

sarcoma = assay: MTT assay, tumor cells; format: cell-based, human; parameters: concentration or dose not given beside the values; settings: 48 hours, mean ± SD
Protocol: as §1

Breast cancer = assay: MTT assay, tumor cells; format: cell-based, human; parameters: concentration or dose not given beside the values; settings: 48 hours, mean ± SD
Protocol: as §1

Prostate cancer = assay: MTT assay, tumor cells; format: cell-based, human; parameters: concentration or dose not given beside the values; settings: 48 hours, mean ± SD
Protocol: as §1

Kidney cancer = assay: MTT assay, tumor cells; format: cell-based, human; parameters: concentration or dose not given beside the values; settings: 48 hours, mean ± SD
Protocol: as §1

Melanoma = assay: MTT assay, tumor cells; format: cell-based, human; parameters: concentration or dose not given beside the values; settings: 48 hours, mean ± SD
Protocol: as §1

Uterine cancer = assay: MTT assay, tumor cells; format: cell-based, human; parameters: concentration or dose not given beside the values; settings: 48 hours, mean ± SD
Protocol: as §1

Cervical cancer = assay: MTT assay, tumor cells; format: cell-based, human; parameters: concentration or dose not given beside the values; settings: 48 hours, mean ± SD
Protocol: as §1

Ovarian cancer = assay: MTT assay, tumor cells; format: cell-based, human; parameters: concentration or dose not given beside the values; settings: 48 hours, mean ± SD
Protocol: as §1

Esophageal cancer = assay: MTT assay, tumor cells; format: cell-based, human; parameters: concentration or dose not given beside the values; settings: 48 hours, mean ± SD
Protocol: as §1

Brain tumor = assay: MTT assay, tumor cells; format: cell-based, human; parameters: concentration or dose not given beside the values; settings: 48 hours, mean ± SD
Protocol: as §1

Bladder Cancer = assay: MTT assay, tumor cells; format: cell-based, human; parameters: concentration or dose not given beside the values; settings: 48 hours, mean ± SD
Protocol: as §1

Head and neck cancer = assay: MTT assay, tumor cells; format: cell-based, human; parameters: concentration or dose not given beside the values; settings: 48 hours, mean ± SD
Protocol: as §1

Colorectal cancer = assay: MTT assay, tumor cells; format: cell-based, human; parameters: concentration or dose not given beside the values; settings: 48 hours, mean ± SD
Protocol: as §1

Gastric cancer = assay: MTT assay, tumor cells; format: cell-based, human; parameters: concentration or dose not given beside the values; settings: 48 hours, mean ± SD
Protocol: as §1

Thyroid cancer = assay: MTT assay, tumor cells; format: cell-based, human; parameters: concentration or dose not given beside the values; settings: 48 hours, mean ± SD
Protocol: as §1

Chlamydia pneumoniae = assay: Mouse pneumonia model, chlamydia; format: in vivo, BALB/C mice; parameters: concentration or dose not given beside the values; settings: mean ± SD
Protocol: (§2) The mouse pneumonia model was successfully established by the nose-drop method. To build the mouse pneumonia model, BALB/C mice with a body mass of 16-22 g were selected and anesthetized pneumonia chain was prepared after anesthesia with ether on day 0, day 1, and day 2. Staphylococcal fluid, adenovirus concentrate, Mycoplasma pneumoniae, Chlamydia pneumoniae, protozoa, and pneumonia fungi were slowly dripped into the nasal cavity of the mice, so that they enter the tracheobronchial. During the operation process, care was exercised to prevent bacterial fluid from flowing into the esophagus, which leads to inactivation the bacterial fluid. After successful model establishment, the polypeptides of the present invention were administered, and the results were shown in Table 5. […] The results were expressed in average value±standard deviation.

[1] = system: Pneumonia caused by lung infection; assay: Mouse pneumonia model, pneumonia caused by lung infection; format: in vivo, BALB/C mice; parameters: concentration or dose not given beside the values; settings: mean ± SD
Protocol: as §2

adenovirus concentrate = assay: Mouse pneumonia model, viral; format: in vivo, BALB/C mice; settings: mean ± SD
Protocol: as §2

Staphylococcal fluid = assay: Mouse pneumonia model, bacterial; format: in vivo, BALB/C mice; parameters: concentration or dose not given beside the values; settings: mean ± SD
Protocol: as §2

Substance | tumor growth inhibition rate, MTT Assay (Pancreatic cancer) [%] | tumor growth inhibition rate, MTT Assay (Liver cancer) [%] | tumor growth inhibition rate, MTT Assay (Hemangioma) [%] | tumor growth inhibition rate, MTT Assay (sarcoma) [%] | tumor growth inhibition rate, MTT Assay (Breast cancer) [%] | tumor growth inhibition rate, MTT Assay (Prostate cancer) [%] | tumor growth inhibition rate, MTT Assay (Kidney cancer) [%] | tumor growth inhibition rate, MTT Assay (Melanoma) [%] | tumor growth inhibition rate, MTT Assay (Uterine cancer) [%] | tumor growth inhibition rate, MTT Assay (Cervical cancer) [%] | tumor growth inhibition rate, MTT Assay (Ovarian cancer) [%] | tumor growth inhibition rate, MTT Assay (Esophageal cancer) [%] | tumor growth inhibition rate, MTT Assay (Brain tumor) [%] | tumor growth inhibition rate, MTT Assay (Bladder Cancer) [%] | tumor growth inhibition rate, MTT Assay (Head and neck cancer) [%] | tumor growth inhibition rate, MTT Assay (Colorectal cancer) [%] | tumor growth inhibition rate, MTT Assay (Gastric cancer) [%] | tumor growth inhibition rate, MTT Assay (Thyroid cancer) [%] | Inhibitory Effects on Various Pulmonary Infections (Chlamydia pneumoniae) [%] | Inhibitory Effects on Various Pulmonary Infections [1] [%] | also measured
Arg-Gly-Asp-Gly-Gly-Gly-Gly-Pro-(D-Pyr)-(D-Cys)-Bip-Arg-Gly-Glu-Gly-Gly-Gly-Gly-Ile-Val-Arg-Arg-Ala-Asp-Arg-Ala-Ala-Val-Pro [Polypeptide III] | 66.99 ± 22.30 | 82.66 ± 18.13 | 85.21 ± 25.36 | 74.75 ± 16.39 | 90.11 ± 22.76 | 73.54 ± 24.09 | 67.94 ± 18.90 | 64.46 ± 14.14 | 70.93 ± 23.38 | 68.52 ± 26.72 | 75.87 ± 22.58 | 74.58 ± 16.36 | 77.52 ± 17.00 | 58.81 ± 12.90 | 55.05 ± 12.07 | 96.60 ± 21.18 | 73.58 ± 20.14 | 70.99 ± 15.57 | 49.88 ± 14.05 | 55.08 ± 15.52 | Inhibitory Effects on Various Pulmonary Infections (adenovirus concentrate): 62.17 ± 17.51%; Inhibitory Effects on Various Pulmonary Infections (Staphylococcal fluid): 47.07 ± 13.26%
Pro-(D-Pyr)-(D-Cys)-Bip-Arg-Gly-Glu-Gly-Gly-Gly-Gly-Arg-Gly-Asp-Gly-Gly-Gly-Gly-Ile-Val-Arg-Arg-Ala-Asp-Arg-Ala-Ala-Val-Pro [Polypeptide VI] | 65.89 ± 18.21 | 65.26 ± 14.80 | 91.30 ± 20.71 | 59.01 ± 13.39 | 81.92 ± 18.58 | 72.33 ± 19.68 | 53.64 ± 15.44 | 50.89 ± 11.54 | 69.77 ± 19.09 | 67.39 ± 21.82 | 81.29 ± 18.44 | 58.88 ± 13.36 | 61.20 ± 13.88 | 46.43 ± 10.53 | 43.46 ± 9.86 | 76.26 ± 17.30 | 58.09 ± 16.44 | 56.04 ± 12.71 | 42.16 ± 13.36 | 46.55 ± 16.44 | Inhibitory Effects on Various Pulmonary Infections (adenovirus concentrate): 52.54 ± 13.88%; Inhibitory Effects on Various Pulmonary Infections (Staphylococcal fluid): 39.78 ± 9.86%
Arg-Gly-Asp-Gly-Gly-Gly-Gly-Ile-Val-Arg-Arg-Ala-Asp-Arg-Ala-Ala-Val-Pro-Gly-Gly-Gly-Gly-Pro-(D-Pyr)-(D-Cys)-Bip-Arg-Gly-Glu [Polypeptide IV] | 74.13 ± 24.16 | 73.42 ± 19.64 | 87.49 ± 27.47 | 66.39 ± 17.76 | 92.16 ± 24.65 | 81.37 ± 26.10 | 60.35 ± 20.48 | 57.25 ± 15.31 | 78.49 ± 25.33 | 64.58 ± 28.95 | 91.45 ± 24.46 | 66.24 ± 17.72 | 68.85 ± 18.42 | 52.23 ± 13.97 | 48.89 ± 13.08 | 85.80 ± 22.95 | 65.35 ± 21.81 | 63.05 ± 16.87 | 47.43 ± 17.72 | 52.37 ± 21.81 | Inhibitory Effects on Various Pulmonary Infections (adenovirus concentrate): 59.10 ± 18.42%; Inhibitory Effects on Various Pulmonary Infections (Staphylococcal fluid): 44.75 ± 13.08%
Ile-Val-Arg-Arg-Ala-Asp-Arg-Ala-Ala-Val-Pro-Gly-Gly-Gly-Gly-Arg-Gly-Asp-Gly-Gly-Gly-Gly-Pro-(D-Pyr)-(D-Cys)-Bip-Arg-Gly-Glu [Polypeptide V] | 63.15 ± 20.63 | 62.54 ± 16.77 | 87.49 ± 23.46 | 56.55 ± 15.16 | 78.51 ± 21.05 | 69.32 ± 22.29 | 51.41 ± 17.48 | 48.77 ± 13.08 | 66.86 ± 21.63 | 64.58 ± 24.72 | 77.90 ± 20.89 | 56.43 ± 15.13 | 58.65 ± 15.73 | 44.49 ± 11.93 | 41.65 ± 11.17 | 73.08 ± 19.60 | 55.67 ± 18.63 | 53.71 ± 14.40 | 40.40 ± 15.13 | 44.61 ± 18.63 | Inhibitory Effects on Various Pulmonary Infections (adenovirus concentrate): 50.35 ± 15.73%; Inhibitory Effects on Various Pulmonary Infections (Staphylococcal fluid): 38.12 ± 11.17%
Pro-(D-Pyr)-(D-Cys)-Bip-Arg-Gly-Glu-Gly-Gly-Gly-Gly-Ile-Val-Arg-Arg-Ala-Asp-Arg-Ala-Ala-Val-Pro-Gly-Gly-Gly-Gly-Arg-Gly-Asp [Polypeptide I] | 54.91 ± 18.59 | 54.38 ± 15.11 | 76.08 ± 21.13 | 49.18 ± 13.66 | 68.27 ± 18.96 | 60.28 ± 20.08 | 44.70 ± 15.75 | 42.41 ± 11.78 | 58.14 ± 19.48 | 56.16 ± 22.27 | 67.74 ± 18.82 | 49.07 ± 13.63 | 51.00 ± 14.17 | 38.69 ± 10.75 | 36.22 ± 10.06 | 63.55 ± 17.65 | 48.41 ± 16.78 | 46.70 ± 12.97 | 35.13 ± 13.63 | 38.79 ± 16.78 | Inhibitory Effects on Various Pulmonary Infections (adenovirus concentrate): 43.78 ± 14.17%; Inhibitory Effects on Various Pulmonary Infections (Staphylococcal fluid): 33.15 ± 10.06%
